Measurements reported in patent US20080039431A1, “Method of improving plant growth by reducing viral infections” (priority 2006, published 2008).

Legend:
[1] = test system: tomato spotted wilt virus (TSWV); assay: Bell pepper drench trial (Example 7); format: in vivo, bell pepper (Capsicum annum L.); conditions: for Percent control of incidence of TSWV in bell peppers: Abbott's formula; for Percent incidence TSWV in bell peppers: drench, prothioconazole 0.0084 g ai/plant, imidacloprid 0.01 g/plant
Procedure: Cultivation—A trial on bell pepper (Capsicum annum L.) was initiated in Molino, Fla. to see if drenches of prothioconazole alone and in combination with the insecticide imidacloprid could control TSWV in pepper. Bell pepper plants were transplanted on April 11 into 9.1 meter plots with three replications as in Example 6. Treatments were applied as a drench in 40 ml water per plant (7 days after transplanting) on April 18 as in Example 6.
Treatments— • Untreated—no in-furrow treatment. • Imidacloprid—imidacloprid@0.01 g imidacloprid/plant. • Prothioconazole—prothioconazole@0.0084 g prothioconazole/plant. • Prothioconazole+Imidacloprid—prothioconazole@0.0084 g active ingredient/plant+imidacloprid@0.01 g imidacloprid/plant.
TSWV rating—For TSWV incidence determination, the percentage of plants with TSWV symptoms (chlorosis and stunting) was determined for the four treatments at 21, 29, 38, and 47 days after treatment as in Example 6.
Synergy formula—The Colby formula for proof of synergy was used in Example 7 as in Example 6.

[2] = test system: tomato spotted wilt virus (TSWV); assay: Replicated tomato drench trial (Example 6); format: in vivo, tomato (Lycopersicon esculentum MILL.); conditions: prothioconazole 0.0084 g ai/plant, imidacloprid 0.01 g/plant; for Percent control of incidence of TSWV in tomatoes: Abbott's formula; for Percent incidence of TSWV in tomatoes: drench
Procedure: Cultivation—A replicated trial on tomato (Lycopersicon esculentum MILL.) was initiated in Molino, Fla. to determine if drenches of prothioconazole alone and in combination with the insecticide imidacloprid would suppress TSWV in tomato. Tomato plants, cultivar FL 47 were transplanted on April 11 into 4 rows, each 9.1 meters long, 60 plants per plot, with three replications. Treatments were applied, into a shallow bowl dug at the base of each plant, as a drench in 40 ml water per plant (6 days after transplanting) on April 17. Treatments— • Untreated—no in-furrow treatment • Imidacloprid@0.01 g imidacloprid/plant. • Prothioconazole—prothioconazole@0.0084 g active ingredient/plant. • Prothioconazole+Imidacloprid—prothioconazole@0.0084 g active ingredient/plant+imidacloprid@0.01 g imidacloprid/plant. TSWV rating—University researchers recommend buffers in TSWV testing. Therefore, the center two rows (30 plants) per plot were used for virus ratings with the outer two rows acting as buffers. TSWV incidence determinations were made based on the presence or absence of TSWV symptoms (chlorosis and stunting) per plant. The four treatments were rated at 21, 29, and 39 days after treatment. Synergy formula—The Colby formula for proof of synergy was used in Example 6. The percent incidence values were converted to percent control with Abbotts's formula (1-treated/untreated)*100. Percent control values for solo treatment X and solo treatment Y, were entered into the Colby formula. When the value determined from the plots with both treatment X and Y applied together is greater than the value determined by the Colby formula then synergy is indicated. The formula is: X+Y−(X*Y/100).

[3] = test system: tomato spotted wilt virus (TSWV); assay: Tobacco drench / broadcast spray trial (Example 8); format: in vivo, tobacco (Nicotiana tabacum); conditions: acibenzolar-S-methyl 2.47 g ai/Ha broadcast spray
From the text: Cultivation—A trial on tobacco (Nicotiana tabacum) was initiated in Molino, Fla., to see if drenches of prothioconazole alone and in combination with the insecticide imidacloprid could control TSWV in tobacco. Plants of cultivar C-371 Gold were transplanted on April 28 into 9.1 meter plots with three replications. All eight treatments were applied after transplanting on May 1. Foliar treatments were applied as a broadcast spray, while drenches were applied as in Example 6. Acibenzolar-S-methyl is a plant defense activator used to control TSWV in tobacco.
Treatments— • Untreated • Imidacloprid@0.01 g imidacloprid/plant • Imidacloprid@0.015 g Imidacloprid/plant • Prothioconazole@0.0084 g active ingredient/plant • Prothioconazole@0.0084 g active ingredient/plant+Imidacloprid@0.01 g imidacloprid/plant • Prothioconazole@0.0084 g active ingredient/plant+Imidacloprid@0.015 g […] label. • Acibenzolar-S-methyl@2.47 g active ingredient/Ha as a broadcast spray as per label.
TSWV rating—For TSWV incidence determination the percentage of plants with TSWV symptoms (chlorosis and stunting) was determined for the eight treatments as in Example 6.

[4] = 14 days after treatment, prothioconazole 0.0084 g ai/plant, imidacloprid 0.01 g/plant (drench)
[5] = 21 days after treatment, prothioconazole 0.0084 g ai/plant, imidacloprid 0.01 g/plant (drench)
[6] = 38 days after treatment, prothioconazole 0.0084 g ai/plant, imidacloprid 0.01 g/plant (drench)

SMILES: O=[N+]([O-])NC1=NCCN1Cc1ccc(Cl)nc1 [Imidacloprid, imidacloprid]
- Percent control of incidence of TSWV in bell peppers ([1]; 21 days after treatment): 26.14%
- Percent incidence TSWV in bell peppers ([1]; 21 days after treatment): 17.8%
- Percent control of incidence of TSWV in bell peppers ([1]; 29 days after treatment): 45.84%
- Percent incidence TSWV in bell peppers ([1]; 29 days after treatment): 25.4%
- Percent control of incidence of TSWV in bell peppers ([1]; 38 days after treatment): 25.49%
- Percent incidence TSWV in bell peppers ([1]; 38 days after treatment): 38.3%
- Percent control of incidence of TSWV in bell peppers ([1]; 47 days after treatment): 19.32%
- Percent incidence TSWV in bell peppers ([1]; 47 days after treatment): 42.6%
- Increase of TSWV level from 38 DAT to 47 DAT ([1]; bell pepper, untreated increased by 1.4 percent): roughly 4.5%
- Percent control of incidence of TSWV in tomatoes ([2]; 21 days after treatment): 65.07%
- Percent incidence of TSWV in tomatoes ([2]; 21 days after treatment): 10.2%
- Percent control of incidence of TSWV in tomatoes ([2]; 29 days after treatment): 50.52%
- Percent incidence of TSWV in tomatoes ([2]; 29 days after treatment): 33.4%
- Percent control of incidence of TSWV in tomatoes ([2]; 39 days after treatment): 41.30%
- Percent incidence of TSWV in tomatoes ([2]; 39 days after treatment): 49.6%
- Percent incidence TSWV in tobacco ([3]; 14 days after treatment, imidacloprid 0.015 g/plant, prothioconazole 0.0084 g ai/plant (drench)): 23.9%
- Percent incidence TSWV in tobacco [3, 4]: 23.9%
- Percent incidence TSWV in tobacco ([3]; 21 days after treatment, imidacloprid 0.015 g/plant, prothioconazole 0.0084 g ai/plant (drench)): 25.5%
- Percent incidence TSWV in tobacco [3, 5]: 24.4%
- Percent incidence TSWV in tobacco ([3]; 38 days after treatment, imidacloprid 0.015 g/plant, prothioconazole 0.0084 g ai/plant (drench)): 45.5%
- Percent incidence TSWV in tobacco [3, 6]: 45.0%

SMILES: CSC(=O)c1cccc2nnsc12 [acibenzolar-S-methyl]
- Percent incidence TSWV in tobacco [3, 4]: 36.7%
- Percent incidence TSWV in tobacco [3, 5]: 46.7%
- Percent incidence TSWV in tobacco [3, 6]: 53.9%
